test system: NR2A, GluR1 and CREB; test: Immunoblot and immunofluorescence of synaptic molecules in WT hippocampal neurons; assay type: cell-based, mouse; conditions: 5 μM HEX, 5 μM OCT, 50 μM HMB
Procedure: (FIG. 17A) Immunoblot analyses followed by densitometric analyses of NR2A (FIG. 17B), GluR1 (FIG. 17C) and CREB (FIG. 17D) were performed in Ppara-null and WT hippocampal neurons treated with 5 μM HEX, 5 μM OCT and 50 μM HMB. Data are mean±SD of three different experiments. ^ap<0.05 versus WT-control. Immunocytochemical analyses of NR2A (FIG. 17E) and GluR1 (FIG. 17F) in WT and Ppara-null hippocampal neurons treated with HEX, OCT and HMB. Hippocampal neurons were transduced with lenti-GFP for 48 h followed by treatment with different ligands. Immunoblot analyses followed by relative densitometric analyses of CREB in Ppara-null hippocampal neurons transduced with lentivirions containing different Ppara constructs followed by treatment with HEX (FIG. 17G-H), OCT (FIG. 17I-J) and HMB (FIG. 17K-L). Bands were scanned and presented as relative to control (FIG. 17H, HEX; FIG. 17J, OCT; FIG. 17L, HMB). Data are mean±SD of three different experiments. ^ap<0.05 vs FLPpara control.
Isolation of Mouse Hippocampal Neurons: Hippocampal neurons were isolated from fetuses (E18) of pregnant female Ppara-null and strain-matched WT littermate mice as described by us^6,13,35-36 with some modifications. Briefly, dissection and isolation procedures were performed in an ice-cold, sucrose buffer solution (sucrose 0.32 M, Tris 0.025 M; pH 7.4)^37. The skin and the skull were carefully removed from the brain by scissors followed by peeling off the meninges by a pair of fine tweezers. Next, a fine incision was made in the middle line around the circle of Willis and medial temporal lobe was opened up. Hippocampus was isolated as a thin slice of tissue located near the cortical edge of medial temporal lobe. Hippocampal tissues isolated from all fetal pups (n>10) were combined together and homogenized with 1 ml of trypsin for 5 minutes at 37° C. followed by neutralization of trypsin. The single cell suspension of hippocampal tissue was plated in the poly-D-lysine pre-coated 75 mm flask. Five min after plating, the supernatants were carefully removed and replaced with complete neurobasal media. The next day, 10 μM AraC was added to remove glial contamination in the neuronal culture. The pure cultures of hippocampal neurons were allowed to differentiate fully for 9-10 days before treatment^35,36,38.
For whole-cell and tissue lysates, samples were homogenized in RIPA buffer containing protease and phosphatase inhibitors (Sigma), passed 10 times through a 26-gauge needle, rotated end over end for 30 min at 4° C., and centrifuged for 10 min at 18,000×g. The supernatant was aliquoted and stored at −80° C. until use. Protein concentrations were determined using a NanoDrop 2000 (Thermo Fisher), and 15-30 μg sample was heat-denatured and resolved on 10% or 12% polyacrylamide-SDS gels, transferred to 0.45 μm nitrocellulose membranes under semidry conditions (15V for 12 min). Membranes were blocked for 1 h with blocking buffer (Li-Cor), incubated with primary antibodies overnight at 4° C. under shaking conditions, washed, incubated with IR-dye-labeled secondary antibodies (1:17,000; Li-Cor) for 45 min at room temperature, washed, and visualized with the Odyssey Infrared Imaging System (Li-Cor). Blots were converted to grayscale and then binary, analyzed using Fiji, and normalized to appropriate loading controls.

SMILES	expression of CREB	expression of GluR1	expression of NR2A
CCCCCCCCCCCCCCCC(N)=O [HEX, hexadecanamide]	upregulated	upregulated	upregulated
CCOC(=O)C(C)(C)C(C)O (stereo not drawn) [HMB]	upregulated	upregulated	upregulated
CCCCCCCCC=CCCCCCCCC(N)=O [OCT, 9-octadecenamide]	upregulated	upregulated	upregulated

test system: AMPA-driven calcium influx; test: AMPA-driven calcium influx in transduced Ppara-null hippocampal neurons; assay type: cell-based, mouse; conditions: lenti-FL-Ppara
Procedure: Ppara-null hippocampal neurons were transduced with lentivirions containing GFP (vector), FL-Ppara, and Y464D-Ppara for 48 h followed by treatment with vehicle (DMSO) (FIG. 11A), OCT (FIG. 11B), HEX (FIG. 11C), HMB (FIG. 11D), and WY14643 (FIG. 11E) for 24 h. Then neurons were stained for phalloidin to measure spine density. FIG. 11F) A representative picture of dendrite with spines (Cyan color) used for counting area of spine heads. Area of spine heads (FIG. 11G) and number of spines (FIG. 11H) in 10 μm of dendrites. Results are mean±SEM of 5 neurons per group. ^ap<0.05 vs vector only; ^bp<0.05 vs FL-Ppara. AMPA-driven calcium influx was measured in OCT (red), HEX (green) and HMB (purple)-treated Ppara-null hippocampal neurons transduced with lentivirions containing FL-Ppara (FIG. 11I), Y314D-Ppara (FIG. 11J), Y464D-Ppara (FIG. 11K), and Y314D/Y464D-Ppara (FIG. 11L). All neurons were treated with 50 μM of NMDA receptor antagonist N20C to inhibit passive calcium flow through NMDA receptor. (FIG. 11M-P) Similarly NMDA-driven calcium influx was measured in the lentivius-infected Ppara-null hippocampal neurons in the presence of different endogenous ligands. In these cases, Naspm-HCl was treated to stop the passive flow of calcium currents through AMPA receptor. Results are mean of three independent experiments.

SMILES	AMPA-mediated calcium influx
CCCCCCCCCCCCCCCC(N)=O [HEX, hexadecanamide]	stimulated
CCOC(=O)C(C)(C)C(C)O (stereo not drawn) [HMB]	stimulated
CCCCCCCCC=CCCCCCCCC(N)=O [OCT, 9-octadecenamide]	stimulated

same assay, conditions: lenti-Y314D-Ppara

SMILES	AMPA-mediated calcium influx
CCCCCCCCCCCCCCCC(N)=O [HEX, hexadecanamide]	partially restore
CCOC(=O)C(C)(C)C(C)O (stereo not drawn) [HMB]	partially restore
CCCCCCCCC=CCCCCCCCC(N)=O [OCT, 9-octadecenamide]	partially restore

same assay, conditions: lenti-Y314D/Y464D-Ppara

SMILES	AMPA-mediated calcium influx
CCCCCCCCCCCCCCCC(N)=O [HEX, hexadecanamide]	remained unable to increase
CCOC(=O)C(C)(C)C(C)O (stereo not drawn) [HMB]	remained unable to increase
CCCCCCCCC=CCCCCCCCC(N)=O [OCT, 9-octadecenamide]	remained unable to increase

same assay, conditions: lenti-Y464D-Ppara

SMILES	AMPA-mediated calcium influx
CCCCCCCCCCCCCCCC(N)=O [HEX, hexadecanamide]	remained unable to increase
CCOC(=O)C(C)(C)C(C)O (stereo not drawn) [HMB]	remained unable to increase
CCCCCCCCC=CCCCCCCCC(N)=O [OCT, 9-octadecenamide]	remained unable to increase

test system: PPRE-driven luciferase activity; test: PPRE-luciferase assay in Pparb-null astrocytes with PPARγ antagonist GW9662; assay type: cell-based, mouse; conditions: Pparb-null astrocytes
Procedure: FIG. 16A) Pparb-null primary astrocytes plated at 60-70% confluence in 12-well plates were transfected with 0.25 μg of tkPPREx3-Luc (a PPRE-dependent luciferase reporter construct). Twenty-four hours after transfection, cells were treated with different concentrations of GW9662 for 30 min followed by stimulation with rosiglitazone. After 4 h, luciferase activities were assayed. […] After transfection, cells were also treated with GW9662 followed by stimulation with OCT (FIG. 16B), HEX (FIG. 16C) and HMB (FIG. 16D).
These astrocytes were pre-treated with PPARγ-antagonist GW9662 to nullify the involvement of PPARγ in reporter assay.

PPRE luciferase activity	SMILES
markedly increased	CCCCCCCCCCCCCCCC(N)=O [HEX, hexadecanamide]
markedly increased	CCOC(=O)C(C)(C)C(C)O (stereo not drawn) [HMB]
markedly increased	CCCCCCCCC=CCCCCCCCC(N)=O [OCT, 9-octadecenamide]

same assay, conditions: Pparb-null astrocytes pre-treated with GW9662

effect of GW9662 on ligand-mediated increase in PPRE-luciferase activity	SMILES
remained unable to inhibit	CCCCCCCCCCCCCCCC(N)=O [HEX, hexadecanamide]
remained unable to inhibit	CCOC(=O)C(C)(C)C(C)O (stereo not drawn) [HMB]
remained unable to inhibit	CCCCCCCCC=CCCCCCCCC(N)=O [OCT, 9-octadecenamide]

molecular target: T1, PPARα LBD (Homo sapiens, UniProt Q07869); test: TR-FRET PPAR-alpha coactivator assay (Lanthascreen); assay type: biochemical; conditions: curve fit FIG. 13
T1 construct: GST-tagged recombinant PPARα LBD protein; purchased PV4684
T1 sequence (Q07869 239-466 limits assumed): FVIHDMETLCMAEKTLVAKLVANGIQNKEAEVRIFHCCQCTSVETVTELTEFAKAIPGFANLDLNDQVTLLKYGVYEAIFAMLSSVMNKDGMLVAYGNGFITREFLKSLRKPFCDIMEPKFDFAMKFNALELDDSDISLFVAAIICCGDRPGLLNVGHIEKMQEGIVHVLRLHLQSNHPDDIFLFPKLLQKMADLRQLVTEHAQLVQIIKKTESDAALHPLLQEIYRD
Procedure: TR-FRET assay was performed using Lanthascreen TR-FRET PPAR-alpha coactivator assay kit (Cat # PV4684). In this assay, different doses of statin drugs were incubated with GST-tagged recombinant PPARα LBD protein, Terbium (Tb)-tagged anti GST antibody and Fluorescein (FL)-tagged PGC1α as directed in the manufacturer's protocol. The entire reaction was set up in corning 384 well plates by an automated robotic injector. Each plate was centrifuged, incubated in a dark place for 30 mins, and then analyzed “molecular devices analyst” machine equipped with dichroic mirror. The excitation wavelength and emission wavelength were set at 340 nm and 540 nm wavelength respectively.

EC50 [µM]	SMILES
4.36	CCCCCCCCCCCCCCCC(N)=O [HEX, hexadecanamide]
31.6	CCOC(=O)C(C)(C)C(C)O (stereo not drawn) [HMB]
4.31	CCCCCCCCC=CCCCCCCCC(N)=O [OCT, 9-octadecenamide]

From patent US10617664B2, “Brain derived PPARα ligands” (Rush University Medical Center, priority 2015, dated 2020)
